Results taken from PubChem BioAssay (NCI).
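Cells were grown in 96-well plates and exposed to each compound for 48 hours at five concentrations; endpoints were interpolated linearly between bracketing concentrations, or set to the highest concentration if not reached. The concentration for full growth arrest is given as TGI.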

Experiments:
Assay in all cases: NCI-60 cell line screen, 48 h
SN12C renal = tested on: SN12C renal
ACHN renal = tested on: ACHN renal
NCI/ADR-RES ovarian = tested on: NCI/ADR-RES ovarian
LOX IMVI melanoma = tested on: LOX IMVI melanoma
MDA-MB-231 breast = tested on: MDA-MB-231 breast
U251 CNS = tested on: U251 CNS
HOP-62 NSCLC = tested on: HOP-62 NSCLC
SK-MEL-28 melanoma = tested on: SK-MEL-28 melanoma
786-0 renal = tested on: 786-0 renal
SNB-75 CNS = tested on: SNB-75 CNS
KM12 colon = tested on: KM12 colon
CCRF-CEM leukemia = tested on: CCRF-CEM leukemia
OVCAR-4 ovarian = tested on: OVCAR-4 ovarian
SK-OV-3 ovarian = tested on: SK-OV-3 ovarian
OVCAR-5 ovarian = tested on: OVCAR-5 ovarian
COLO 205 colon = tested on: COLO 205 colon
EKVX NSCLC = tested on: EKVX NSCLC
RXF 393 renal = tested on: RXF 393 renal
HS 578T breast = tested on: HS 578T breast
HL-60(TB) leukemia = tested on: HL-60(TB) leukemia

| Structure (SMILES) | TGI (SN12C renal) [µM] | TGI (ACHN renal) [µM] | TGI (NCI/ADR-RES ovarian) [µM] | TGI (LOX IMVI melanoma) [µM] | TGI (MDA-MB-231 breast) [µM] | TGI (U251 CNS) [µM] | TGI (HOP-62 NSCLC) [µM] | TGI (SK-MEL-28 melanoma) [µM] | TGI (786-0 renal) [µM] | TGI (SNB-75 CNS) [µM] | TGI (KM12 colon) [µM] | TGI (CCRF-CEM leukemia) [µM] | TGI (OVCAR-4 ovarian) [µM] | TGI (SK-OV-3 ovarian) [µM] | TGI (OVCAR-5 ovarian) [µM] | TGI (COLO 205 colon) [µM] | TGI (EKVX NSCLC) [µM] | TGI (RXF 393 renal) [µM] | TGI (HS 578T breast) [µM] | TGI (HL-60(TB) leukemia) [µM] |
| --- | --- | --- | --- | --- | --- | --- | --- | --- | --- | --- | --- | --- | --- | --- | --- | --- | --- | --- | --- | --- |
| CN(C(=O)Cc1cccc(N=C=S)c1)[C@H]1CCCC[C@@H]1N1CCCC1 | 29.5 | 27.2 | 79.8 | 31.3 | 31.8 | 32.3 | 33.2 | 32.8 | 28.6 | 27.8 | 32.1 | 32.9 | 28.5 | 69.4 | 36.1 | 25.2 | 39.6 | 25.9 | 45 |  |
| O=[N+]([O-])c1ccc(S(=O)(=O)n2c3ccc(Br)cc3c3nc4ccccc4nc32)cc1 | > 100 | > 100 | > 100 | > 100 | > 100 | > 100 | > 100 | > 100 | > 100 | > 100 | > 100 | > 100 | > 100 |  | > 100 | > 100 |  | > 100 | > 100 |  |
| O=C(c1cccs1)N1CCc2ccccc2C1 | > 100 | > 100 | > 100 | > 100 | > 100 | > 100 | > 100 | > 100 | > 100 |  | > 100 | > 100 |  | > 100 | > 100 | > 100 | > 100 | > 100 | > 100 | 76 |
| CC1S/C(=N\N=C2/C(=O)Nc3ccc(Br)cc32)N(C2CCCCC2)C1=O (stereo unspecified) | 12.3 | 3.24 | 15.6 | 13.6 | 6.76 | 7.73 | 4.25 | 23.8 | 6.01 |  | 20.8 | > 100 | 4.89 | 14 | > 100 | 33.4 | 22.2 | 14.9 | 14.4 | > 100 |
| COc1cc(OC)c2c(C)cc(=O)oc2c1 | > 100 | > 100 | > 100 | > 100 | > 100 | > 100 | > 100 | > 100 | > 100 | > 100 | > 100 | > 100 | > 100 | > 100 | > 100 | > 100 | > 100 |  | > 100 |  |
| CCc1cc(Cc2cc(CC)c(NC(=O)C(=O)CC(=O)c3sc(-c4cccnc4)nc3C)c(CC)c2)cc(CC)c1NC(=O)C(=O)CC(=O)c1sc(-c2cccnc2)nc1C | > 100 | > 100 | > 100 | > 100 | > 100 | > 100 |  | > 100 | > 100 | > 100 | > 100 | > 100 | > 100 | > 100 | > 100 | > 100 | > 100 | > 100 | > 100 | > 100 |
| CCCCC1Cc2ccccc2-c2nc3ccccc3n21 (stereo unspecified) |  | 31 | 33.5 | 31.6 | 31.7 | 30.9 | 36.5 | 31 | 61.9 |  | 38.5 |  | 29.8 | 37.5 | 31.4 |  | 50 | 34.5 | 35.4 | 0.231 |
| COC(=O)Nc1nc2ccc(S(=O)(=O)SC)cc2[nH]1 | 37.1 | 23.9 | 82.4 | 22.1 | 40.1 | 29.9 | > 100 | 25.3 | 16.9 |  | > 100 | 61.4 | 84.5 | 43 | 45.1 | > 100 | 62.5 | 17.9 | > 100 | 8.11 |
| CCC(=O)Oc1ccc2c(c1)c(=O)c1c(NCCCN(C)C)ccc3nnn2c31 | 15.3 | 12.7 | 18.5 | 2.88 | 19.1 | 17 | 16.6 | 23.9 | 7.06 |  | 18.3 | 2.01 | 3.31 | 18.9 | 22.6 | 13.7 | 16.6 | 15.5 | 21.6 |  |
| Cc1ccc(S(=O)(=O)N/N=C2/CCCOC2)cc1 | > 100 | > 100 | > 100 | > 100 | > 100 | > 100 | > 100 | > 100 | > 100 |  | > 100 | > 100 | > 100 | > 100 | > 100 | > 100 | > 100 | > 100 | > 100 | > 100 |
| C[N+]1(C)CCc2cc(O)c(O)cc2C1Cc1ccc(O)c(O)c1 (stereo unspecified) | > 100 | > 100 | > 100 | 81 | > 100 | > 100 | > 100 | > 100 | > 100 |  | > 100 |  | 45.6 | > 100 | > 100 | > 100 | > 100 | > 100 | > 100 | 54.8 |
| O=C1NC2O[C@H](CNC(=O)c3cc(Br)c[nH]3)CC2(O)N1 (mixture of isomers) | > 100 | > 100 | > 100 |  | > 100 | > 100 | > 100 | > 100 | > 100 | > 100 | > 100 |  | > 100 | > 100 | > 100 | > 100 | > 100 |  | > 100 | > 100 |
| CCOC(=O)C1C(=O)CC1(C)C (stereo unspecified) | > 10 | > 10 | > 10 | > 10 | > 10 | > 10 | > 10 | > 10 | > 10 |  | > 10 | > 10 | > 10 | > 10 | > 10 | > 10 | > 10 | > 10 | > 10 | > 10 |
